The subject of data set [1] is rat thoracic aorta rings, endothelium-intact (E+). Briefly: Vascular reactivity: vasorelaxation in endothelium-intact (E+) aortic rings pre-contracted with Phe 1 µM. Particulars: for IC50: Rattus norvegicus, rings pre-contracted with Phe 1 µM, cumulative 1-30 µM, mean ± SEM, read-out: IC50 vasorelaxation response in endothelium-intact (E+) aorta arterial vessels; for relaxation at the highest concentration: 30 μM, endothelium-intact aorta rings pre-contracted with Phe 1 µM. Also noted: species or system Male Wistar normotensive rats (Rattus norvegicus). The procedure: (§1) All compounds were dissolved with DMSO 100% to obtain a stock solution of 10 mM. In all experiments, the stock solution was employed to obtain a final concentration diluted in Krebs Henseleit solution (vascular reactivity assay) and DMEM supplemented with 10% FBS (cytotoxicity assay).
Male Wistar normotensive rats (Rattus norvegicus) weighing between 200 and 300 grams were supplied by the Central Animal Facility of Fluminense Federal University (NAL-UFF) (Rio de Janeiro, Brazil). The animals were kept in standard environmental conditions of temperature (22 ± 1 °C) and 12 h light/dark cycle, with free access to food (Purina, Brazil) and water. All experiments were conducted in accordance to the guidelines established by National Council for Animal Experimentation Control (CONCEA, Brazil). This study was approved by the Ethics Committee in the Use of Animals of the Fluminense Federal University (CEUA-UFF), certificate under protocol number: 795/2017.
(§2) Animals were anesthetized by isoflurane (1% mg/kg) inhalation and, after the loss of motor control, rats were euthanized by cervical dislocation. Subsequently, the thoracic aorta was dissected and cleaned of connective tissue to obtain rings 4 mm in length that were suspended in a 15 mL organ bath (Panlab four chamber organ bath, AD-Instruments, Sydney, Australia). Tissues were kept in Krebs Henseleit solution at 37 °C with the following composition (mM): NaCl 120; KCl 5.0; MgCl2 1.1; CaCl2 2.5; NaH2PO4 1.2; N-[2-hydroxyethyl] piperazine-N’-[2-ethane-sulfonic acid] (HEPES) 10; NaHCO3 15; and glucose 11, bubbled constantly with a gas mixture of 95% O2 and 5% CO2 (pH 7.4). Each arterial segment was suspended between two steel hooks connected to an isometric transducer to measure tension through a data acquisition system (PowerLab 8 and LabChart Pro, AD-Instruments, Australia). […] Functional endothelial integrity was assessed by the ability of 10 µM ACh to induce ≥70% relaxation in vessels pre-contracted with 1 µM Phe.
Values are expressed as mean ± standard error of mean (SEM). A P-value less than 0.05 was termed statistically significant. The IC50 values (defined as the concentration of the test compound that reduced 50% of the maximal contraction) were obtained by actual concentration-response curve fitting using GraphPad Prism 6.0 software (GraphPad Software, San Diego, CA). Statistical significance was determined using Bonferroni´s multiple comparison for vascular reactivity experiments and using Turkey´s multiple comparison for cytotoxicity evaluation following two-way analysis of variance (ANOVA).
Figure 3 Concentration-response curves for compounds 2a–f and control (vehicle: DMSO) in intact endothelium aortic rings pre-contracted with Phe 1 µM. Cumulative concentrations (1 µM, 3 µM, 10 µM and 30 µM) were added to the Phe contraction plateau. DMSO was employed at the same volume used to dissolve the compound stock solution (maximum final concentration at 0.3%). All data are expressed as mean ± standard error of the mean (SEM) (n = 4–5). (* P < 0.05; *** P < 0.001; **** P < 0.0001 compound vs. control).

Data set [2] deals with VERO cells. Briefly: MTT cell viability (cytotoxicity) assay. Type of data set: cell-based, African Green monkey (Cercopithecus aethiops). The following applies: 30 µM, 48 h exposure. As for the experimental part:
as §1
(§3) A 3-[4,5-dimehyl-2-thiazolyl]-2,5-diphenyl-2H-tetrazoliumbromide (MTT) assay was employed to assess the general cytotoxicity for 4-phenylquinazolin-2(1H)-one derivatives. […]
(§4) The MTT cell viability assay investigates the number of viable cells by measuring the mitochondrial-dependent reduction of water-soluble tetrazolium into an insoluble formazan product. The absorbance obtained is directly proportional to the activity of functional mitochondria and represents the number of viable cells. […] Absorbance was measured with a plate reader (SpectraMax 190, CA, USA) at a wavelength of 550 nm and expressed as a percentage of the control (vehicle).
(§5) Figure 5 Cell viability assessed by the MTT method on the VERO cell line after 48 h of exposure to the compounds. […] All data are expressed as mean ± standard error of the mean (SEM) (n = 22–25). […]

Data set [3] is described as follows: MTT cell viability (cytotoxicity) assay. Type of data set: cell-based, African Green monkey (Cercopithecus aethiops). The following applies: African green monkey (Cercopithecus aethiops), VERO kidney cells, 48 h exposure, % of vehicle control, read-out: percentage of cell viability (living cells). As for the experimental part: as §1, §3, §4, §5
Data set [4] concerns rat thoracic aorta rings, endothelium-denuded (E−). Briefly: Vascular reactivity: vasorelaxation in endothelium-denuded (E−) aortic rings pre-contracted with Phe 1 µM. Also noted: species or system Male Wistar normotensive rats (Rattus norvegicus). The following applies: endothelium-denuded rings pre-contracted with Phe 1 µM; cumulative up to 30 µM. As for the experimental part: A representative record of cumulative concentrations of compound 2f (1 μM, 3 μM, 10 μM and 30 μM) on aortic rings endothelium-intact and endothelium-denuded pre-contracted with Phe 1 μM are shown in Figure 4. Phe induced a steady tone in both preparations that were greater in endothelium denuded rings.
as §2, with “7.4).” for “7.4). Each arterial segment was suspended between two steel hooks connected to an isometric transducer to measure tension through a data acquisition system (PowerLab 8 and LabChart Pro, AD-Instruments, Australia).”
Figure 4 Concentration-response curves of compound 2f in endothelium-intact (E+) and endothelium-denuded (E−) aortic rings pre-contracted with Phe 1 µM. […] All data are expressed as mean ± standard error of the mean (SEM) (n = 4). […]

Entries after “also recorded” stand apart in the source; their conditions may differ.

For `O=c1nc(-c2ccccc2F)c2cc(Cl)ccc2[nH]1` [Compound 2d], in data set [1], the IC50 (usually the concentration needed to halve the response being measured) was found to be 26.5 ± 8.98 µM.

Consider `O=c1nc(-c2ccccc2)c2cc(Br)ccc2[nH]1` [Compound 2e], for which, in data set [1], the “relaxation at the highest concentration” value is “around 90%” and the half-inhibitory concentration (IC50) is 4.94 ± 1.21 µM.

In the case of `O=c1nc(-c2ccccc2)c2cc([N+](=O)[O-])ccc2[nH]1` [Compound 2b], the IC50 in data set [1] was 16.4 ± 3.5 µM. For the same compound, the “cytotoxicity according to ISO 10993: 5 (viability below 70% = cytotoxic)” value in data set [2] is on record as “cytotoxic; also recorded: induced cytotoxicity”. Moreover, in data set [3], the viability (in general, a read-out of living cells in per cent, often relative to untreated cells) at 48 h, 30 µM came out at 69%.

`Cn1c(=O)nc(-c2ccccc2)c2cc(Cl)ccc21` [Compound 2f]: in data set [1], the “relaxation at the highest concentration” value is on record as “around 90%” and the concentration for half-maximal inhibition (IC50) was 3.41 ± 0.65 µM. In addition, the “vasorelaxation in the absence of the endothelium” value in data set [4] is reported as “abolished”.

In the case of `O=c1nc(-c2ccccc2)c2ccccc2[nH]1` [Compound 2a], the IC50 in data set [1] was determined as 39.7 ± 6.77 µM.

For `Cc1ccccc1-c1nc(=O)[nH]c2ccc(Cl)cc12` [Compound 2c], in data set [1], the “relaxation at the highest concentration” value was “around 90%” and the IC50 was determined as 4.31 ± 0.9 µM.

These data come from PMC7146288, “Microwave Assisted Synthesis of 4-Phenylquinazolin-2(1H)-one Derivatives that Inhibit Vasopressor Tonus in Rat Thoracic Aorta” (Molecules, 2020).
